Measurements as given in patent US5021423A, “Mitomycin derivatives and intermediates therefor” (Kyowa Hakko Kogyo Kabushiki Kaisha, priority 1988, dated 1991).
Converted amounts (≈) assume the structure as drawn.

Legend:
[1] = system: Streptococcus faecium: Enterococcus faecium ATTC 10541; assay: Anti-bacterial activity, agar dilution method at pH 7.0 (SF); assay type: cell-based; conditions: pH 7, read-out: minimum growth inhibitory concentration, SF
Description: (§1) In this table, the microorganisms are abbreviated as follows:
SF: Streptococcus faecium: Enterococcus faecium

[2] = system: Staphylococcus aureus ATCC 6538P; assay: Anti-bacterial activity, agar dilution method at pH 7.0 (SA); assay type: cell-based; conditions: ATCC6538P, read-out: minimum growth inhibitory concentration, SA
Description: as §1
SA: Staphylococcus aureus ATCC 6538P

[3] = system: Proteus vulgaris ATCC 6897; assay: Anti-bacterial activity, agar dilution method at pH 7.0 (PV); assay type: cell-based; conditions: ATCC6897, read-out: minimum growth inhibitory concentration, PV
Description: as §1
PV: Proteus vulgaris ATCC 6897

[4] = system: Klebsiella pneumoniae ATCC 10031; assay: Anti-bacterial activity, agar dilution method at pH 7.0 (KP); assay type: cell-based; conditions: ATCC10031, read-out: minimum growth inhibitory concentration, KP
Description: as §1
KP: Klebsiella pneumoniae ATCC 10031

[5] = system: HeLa S3 cells; assay: Inhibition test against the growth of HeLa S3 cells; assay type: cell-based; conditions: Homo sapiens, 72 hours, neutral red, read-out: IC50 (growth inhibition by 50%)
Description: Inhibition test against the growth of HeLa S3 cells
Each 0.1 ml of MEM medium containing 10% foetal calf serum and 2 mM glutamine, which contained 3×10^4 HeLa S3 cells per ml, was put into each well of a 96 well microtitre plate. Without any pre-treatment, the cells were cultured overnight at a temperature of 37° C. in a CO2 incubator.
On each occasion, 0.05 ml of a test sample which had been suitably diluted was added to the well. After treating with the test compound for 72 hours, the supernatant was removed. After washing once with a PBS (-), a fresh medium (0.1 ml) was added to each well, followed by incubating at a temperature of 37° C. for 2 hours in the incubator.
After removal of the supernatant, 0.1 ml of a medium containing neutral red (0.02%) was added to each well. The cells were dyed by incubating at a temperature of 37° C. for one hour in the incubator. After removal of the supernatant, followed by washing once with a physiological solution of sodium chloride, the dyestuff was removed from each sample by extraction using a mixture of 0.001N hydrochloric acid and 30% ethanol. A microplate reader was used to measure the absorption at 550 nm. By comparing the absorption of untreated cells with the absorption of the cells treated with the test compound having a pre-determined concentration, a concentration of the test compound capable of inhibiting the growth of the cells by 50% was calculated and designated as IC50.

[6] = system: Sarcoma 180 solid tumour; assay: Effect against Sarcoma 180 solid tumour; assay type: in vivo, mice of ddy strain; conditions: Mus musculus, Sarcoma-180, iv, 168 h; male ddy mice, tail vein injection 24 hours after implantation; tumour volume 7 days after implantation; read-out: ED50 (dose reducing the volume of Sarcoma 180 solid tumours by 50%)
Description: (1) Effect aginast Sarcoma 180 solid tumour:
5×10^6 cells of Sarcoma 180 solid tumour cells were abdominally implanted into male mice of ddy strain. 7 days after this, ascites cells were sampled. The ascites cells were washed once with a sterilized physiological solution of sodium chloride and were used to prepare a cell suspension containing 5×10^7 cells per ml. 0.1 ml of the cell suspension was subcutaneously implanted into the right armpit of a male mouse (ddy strain; body weight 20±2 g). 24 hours after the implantation of the tumour cells, the test compound dissolved in a physiological solution of sodium chloride containing Tween 80, was injected into the tail vein of each mouse of a group consisting of 5 animals at a dose of 0.1-0.2 ml. The anti-tumour activity of the test sample was determined as follows:
7 days after the implantation, the major axis (a) and the minor axis (b) of the tumour were measured to calculate a value of "a×b^2 /2" which corresponds to the volume of the tumour. The anti-tumour activity was expressed by T/C viz. the ratio of the volume of the tumours (T) of the group of animals administered with the test compound to the corresponding volume of tumours (C) of the untreated animals.
(2) Determination of ED50 :
The term ED50 denotes the administered amount needed for reducing the volume of Sarcoma 180 solid tumours in the animals by 50% on the basis of the corresponding volume of Sarcoma 180 solid tumours in the untreated animals. On graph paper, the value T/C was indicated by an arithmetic scale on the longitudinal axis and the administered amount of test compound was indicated by a logarithmic scale on the lateral axis. A straight line indicating the relationship between the dose and T/C was determined by the least squares method from which a dose corresponding to T/C of 0.5 was obtained.

[7] = Acute toxicity; conditions: mouse, in vivo; ddy mice, single intravenous administration, observed for 14 days, Behrens Korber's method
Description: Each animal of the test group consisting of 5 ddy mice was once administered intravenously with a test compound. […] The LD50 was determined by the Behrens Korber's method.

SMILES | MIC [1] | MIC [2] | MIC [3] | MIC [4] | IC50 [5] | ED50 [6] | LD50 at 336 h [7]
CO[C@@]12[C@H](COC(N)=O)C3=C(C(OC(C)=O)=C(C)C4(OCCO4)C3=O)N1C[C@@H]1N[C@@H]12 [Compound 2] | 1.3 µg/mL (≈ 3.08 µM) | 0.63 µg/mL (≈ 1.49 µM) | 1.3 µg/mL (≈ 3.08 µM) | 0.16 µg/mL (≈ 0.38 µM) | 0.007 µg/mL (≈ 0.0166 µM) |  | 
CC(=O)OC1=C(C)C2(OCCO2)C(=O)C2=C1N1C[C@H]3[C@H](N3C)[C@]1(O)[C@H]2COC(N)=O (some centres unmarked) [Compound 3] | 50 µg/mL (≈ 119 µM) | 13 µg/mL (≈ 30.8 µM) | 13 µg/mL (≈ 30.8 µM) | 6.3 µg/mL (≈ 14.9 µM) |  | 9.9 mg/kg | 11.3 mg/kg
CO[C@@]12[C@H](COC(N)=O)C3=C(C(OC(=O)c4ccccc4)=C(C)C4(OCCO4)C3=O)N1C[C@@H]1N[C@@H]12 [Compound 5] | 1.3 µg/mL (≈ 2.69 µM) | 0.31 µg/mL (≈ 0.641 µM) | 0.63 µg/mL (≈ 1.3 µM) | 1.3 µg/mL (≈ 2.69 µM) | 0.013 µg/mL (≈ 0.0269 µM) |  | 
CCCCCCCCCCCC(=O)OC1=C(C)C2(OCCO2)C(=O)C2=C1N1C[C@@H]3N[C@@H]3[C@]1(OC)[C@@H]2COC(N)=O [Compound 6] | 2.5 µg/mL (≈ 4.45 µM) | 0.63 µg/mL (≈ 1.12 µM) | 2.5 µg/mL (≈ 4.45 µM) | 5 µg/mL (≈ 8.9 µM) | 0.0019 µg/mL (≈ 0.00338 µM) | 1.2 mg/kg | 3 mg/kg
COC1=C(C)C2(OCCO2)C(=O)C2=C1N1C[C@@H]3N[C@@H]3[C@]1(OC)[C@@H]2COC(N)=O [Compound 7] | 10 µg/mL (≈ 25.4 µM) | 5 µg/mL (≈ 12.7 µM) | 10 µg/mL (≈ 25.4 µM) | 2.5 µg/mL (≈ 6.35 µM) | 0.085 µg/mL (≈ 0.216 µM) |  | 
CCCCC/C=C\C/C=C\CCCCCCCC(=O)OC1=C(C)C2(OCCO2)C(=O)C2=C1N1C[C@@H]3N[C@@H]3[C@]1(OC)[C@@H]2COC(N)=O [Compound 10] |  |  |  |  | 0.0026 µg/mL (≈ 0.00405 µM) | 1.9 mg/kg | 4.2 mg/kg
CCCCCCCC(=O)OC1=C(C)C2(OCCO2)C(=O)C2=C1N1C[C@@H]3N[C@@H]3[C@]1(OC)[C@@H]2COC(N)=O [Compound 11] |  |  |  |  | 0.01 µg/mL (≈ 0.0198 µM) | 0.77 mg/kg | 3.1 mg/kg
CO[C@@]12[C@H](COC(N)=O)C3=C(C(OC(=O)C(C)(C)C)=C(C)C4(OCCO4)C3=O)N1C[C@@H]1N[C@@H]12 [Compound 12] |  |  |  |  | 0.53 µg/mL (≈ 1.14 µM) |  | 
